According to patent publication US20210379210A1, “RADIOLIGANDS FOR IMAGING THE LPA1 RECEPTOR” (BRISTOL-MYERS SQUIBB COMPANY, priority 2018, published 2021):

Target: human LPA1 (Homo sapiens, UniProt Q92633)
Assay: In-vitro whole cell binding: competition with the ^18F tracer
Settings: CHO cells overexpressing human LPA1; ^18F tracer 3.8 nM; room temperature 1 hr; read-out: IC50, inhibition of binding of the ^18F tracer
Protocol: The effectiveness of compounds of the present invention as LPA1 inhibitors can be determined in an LPA1 binding assay as follows: Chinese hamster ovary cells overexpressing human LPA1 were maintained in F12 medium (Gibco #11765) supplemented with 10% fetal bovine serum and 1 mg/ml hygromycin (Invitrogen #10687-010). On day of assay, 150 cm^2 flasks of subconfluent cells were harvested with TripLE Express Dissociation reagent (Gibco #12605-010), counted, centrifuged, and resuspended in ice-cold Binding Assay Buffer (BAB: 50 mM HEPES pH 7.2, 100 mM NaCl, 2 mM EDTA) at 2×10^6 cells per ml. Cells were kept on ice until use. Test compound dilution plates were prepared by serially diluting test compounds (2 mM stock in 100% DMSO, […] dilutions) in DMSO, then diluting 1:50 in BAB to generate twelve half-log test concentrations at 4× final concentration. Binding assay were carried out in non-binding surface 96-well plates (Corning #3605) at room temperature for 1 hour. […] Individual filter discs were cut out of the filter plate and counted in a gamma counter. IC50 values were determined by fitting the data to a 4-parameter logistic equation (GraphPad Prism, San Diego Calif.).

Sequence of human LPA1 (Q92633 whole entry): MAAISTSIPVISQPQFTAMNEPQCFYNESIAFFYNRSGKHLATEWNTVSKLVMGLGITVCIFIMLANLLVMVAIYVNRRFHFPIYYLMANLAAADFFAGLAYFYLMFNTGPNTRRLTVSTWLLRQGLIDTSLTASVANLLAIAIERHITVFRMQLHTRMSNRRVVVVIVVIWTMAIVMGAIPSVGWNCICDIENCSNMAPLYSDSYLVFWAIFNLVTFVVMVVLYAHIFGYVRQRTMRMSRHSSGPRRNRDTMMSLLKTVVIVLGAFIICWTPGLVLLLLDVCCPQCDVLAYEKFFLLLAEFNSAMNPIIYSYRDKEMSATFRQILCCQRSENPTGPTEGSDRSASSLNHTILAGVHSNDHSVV

IC50: 24.5 nM
SMILES: Cc1nc(-c2nnn(C)c2COC(=O)N(C)CCCCF)ccc1O[C@H]1CCC[C@H](C(=O)O)C1 [Example 14]
